{"source": "patent US20150272979A1", "about": "“COMBINATION THERAPEUTIC COMPOSITION” (Hoffman La-Roche Inc., priority 2012, published 2015)", "key": {"[1]": {"system": "CYP isozymes including 3A4, 2C19, 1A2, 2D6, and 2C9", "experiment": "Cytochrome P450 phenotyping using chemical inhibitors", "assay_type": "in vitro ADME", "settings": "early preclinical studies", "from_the_text": "(§1) Therefore, a cytochrome P450 monooxygenase inhibitor in an amount effective to inhibit metabolism of the protease inhibitor could increase the bioavailability of Compound 2 compared to administration in the absence of the CYP inhibitor."}, "CYP3A4": {"biological_target": "CYP3A4 (Homo sapiens, UniProt P08684)", "sequence (P08684 whole entry)": "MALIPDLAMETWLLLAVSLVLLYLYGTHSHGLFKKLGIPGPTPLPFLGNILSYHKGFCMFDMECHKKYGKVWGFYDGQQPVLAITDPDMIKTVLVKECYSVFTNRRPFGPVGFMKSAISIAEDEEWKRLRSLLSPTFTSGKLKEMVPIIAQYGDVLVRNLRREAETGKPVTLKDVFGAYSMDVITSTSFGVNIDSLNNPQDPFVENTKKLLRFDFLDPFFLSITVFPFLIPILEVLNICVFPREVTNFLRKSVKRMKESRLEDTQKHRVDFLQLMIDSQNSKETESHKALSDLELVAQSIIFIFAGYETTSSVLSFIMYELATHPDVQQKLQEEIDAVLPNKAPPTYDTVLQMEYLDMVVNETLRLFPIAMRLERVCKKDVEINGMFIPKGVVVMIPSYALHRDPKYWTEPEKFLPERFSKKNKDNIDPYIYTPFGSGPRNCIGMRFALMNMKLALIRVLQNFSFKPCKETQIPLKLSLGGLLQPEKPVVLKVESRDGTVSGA", "experiment": "Metabolism by recombinant CYPs", "assay_type": "in vitro ADME", "from_the_text": "as §1"}, "HCV replication": {"system": "HCV replication", "settings": "general statement; cited from earlier work"}}}
{"smiles": "CC(C)(C)OC(=O)N[C@H]1CCCCC/C=C\\[C@@H]2C[C@@]2(C(=O)NS(=O)(=O)C2CC2)NC(=O)[C@@H]2C[C@@H](OC(=O)N3Cc4cccc(F)c4C3)CN2C1=O", "note": "[Compound 2, (1S,4R,6S,14S,18R)-4-Fluoro-1,3-dihydro-isoindole-2-carboxylic acid 14-tert-butoxycarbonylamino-4-cyclopropanesulfonylaminocarbonyl-2,15-dioxo-3,16-diaza-tricyclo[14.3.0.04,6]nonadec-7-en-18-yl ester]", "values": [{"measurement": "CYP isozymes participating in metabolism", "setting": "[1]", "result": "multiple CYP isozymes including 3A4, 2C19, 1A2, 2D6, and 2C9 participate in the metabolism"}, {"measurement": "Metabolism by recombinant CYPs", "setting": "CYP3A4", "result": "only CYP3A4 metabolized Compound 2 to an extent that could influence the pharmacokinetics"}, {"measurement": "Inhibition of HCV replication", "setting": "HCV replication", "result": "effective in inhibiting HCV replication"}]}
{"smiles": "CS(=O)(=O)Nc1ccc2c(c1)S(=O)(=O)N=C(C1=C(O)C3C([C@@H]4CC[C@H]3C4)N(Cc3ccc(F)cc3)C1=O)N2", "note": "(stereo partly shown) [Compound 3]", "values": [{"measurement": "Inhibition of HCV replication", "setting": "HCV replication", "result": "effective in inhibiting HCV replication"}]}
